Values quoted from earlier work as cited in patent US20050164987A1, “Melatonin combination therapy for improving sleep quality” (priority 2003, published 2005).
Read-outs that look alike come from different tables or passages of the source.

How the values were obtained:
ML2 receptors = ML2 receptors (Homo sapiens, UniProt P16083)
rats [1] = tested on: rats
mice = settings: reference agents; scores below 40 denote behavioral depression
[2] = from the stomach
human MT1 receptors = human MT1 receptors (Homo sapiens, UniProt P48039)
human MT1 receptors, sequence (P48039 whole entry): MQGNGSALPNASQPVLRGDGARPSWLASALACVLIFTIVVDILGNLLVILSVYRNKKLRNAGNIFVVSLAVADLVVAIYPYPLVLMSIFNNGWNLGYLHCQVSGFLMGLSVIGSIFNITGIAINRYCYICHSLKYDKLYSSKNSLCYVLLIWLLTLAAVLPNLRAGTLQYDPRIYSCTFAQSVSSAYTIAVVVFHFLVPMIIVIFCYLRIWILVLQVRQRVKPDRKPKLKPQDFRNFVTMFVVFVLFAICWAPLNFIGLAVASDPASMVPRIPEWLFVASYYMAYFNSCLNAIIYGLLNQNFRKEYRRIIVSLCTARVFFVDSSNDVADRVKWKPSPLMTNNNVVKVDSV

[3] = tested on: mammalian melatonin receptors
levels of melatonin = settings: rats
physiological rhythms = settings: 5 mg dose; simulated 9 h time lag
[4] = tested on: lumbar dorsal horn interneurones and Renshaw cells; settings: in vivo
GABA uptake system = settings: concentrations of 5×10^-4 M
[5] = target: GABA:2-oxo-glutarate aminotransferase (Homo sapiens, UniProt P80404); settings: concentrations of 10^−3 M
GABA:2-oxo-glutarate aminotransferase, sequence (P80404 29-500): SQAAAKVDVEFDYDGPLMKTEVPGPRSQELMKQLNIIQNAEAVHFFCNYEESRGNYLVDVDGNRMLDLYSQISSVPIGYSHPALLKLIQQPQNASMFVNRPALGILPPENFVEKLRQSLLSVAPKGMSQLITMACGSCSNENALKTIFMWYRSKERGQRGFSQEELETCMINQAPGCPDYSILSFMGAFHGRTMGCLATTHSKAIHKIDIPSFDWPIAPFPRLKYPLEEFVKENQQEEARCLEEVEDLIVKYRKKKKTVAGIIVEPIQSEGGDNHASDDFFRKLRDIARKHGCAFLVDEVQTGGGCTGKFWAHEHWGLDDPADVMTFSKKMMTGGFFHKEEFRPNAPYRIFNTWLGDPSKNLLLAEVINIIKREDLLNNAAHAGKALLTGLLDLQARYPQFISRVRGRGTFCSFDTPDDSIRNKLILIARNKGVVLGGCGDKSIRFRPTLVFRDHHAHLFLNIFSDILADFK

[6] = tested on: L-glutamate 1-carboxylase; settings: concentrations of 10^−3 M
[7] = tested on: healthy, elderly patients; settings: oral administration
sleep = settings: post-nap
[8] = tested on: patients with major depressive disorder; settings: 1, 5 and 25 mg once a day vs placebo, 8 weeks, over 700 patients
[9] = target: T1, brain omega-1 receptor located on alpha subunit of the GABAA/chloride ion channel receptor complex (Homo sapiens, UniProt P14867+P18507)
T1 construct: host or cells: brain
T1 sequence (P14867 28-456): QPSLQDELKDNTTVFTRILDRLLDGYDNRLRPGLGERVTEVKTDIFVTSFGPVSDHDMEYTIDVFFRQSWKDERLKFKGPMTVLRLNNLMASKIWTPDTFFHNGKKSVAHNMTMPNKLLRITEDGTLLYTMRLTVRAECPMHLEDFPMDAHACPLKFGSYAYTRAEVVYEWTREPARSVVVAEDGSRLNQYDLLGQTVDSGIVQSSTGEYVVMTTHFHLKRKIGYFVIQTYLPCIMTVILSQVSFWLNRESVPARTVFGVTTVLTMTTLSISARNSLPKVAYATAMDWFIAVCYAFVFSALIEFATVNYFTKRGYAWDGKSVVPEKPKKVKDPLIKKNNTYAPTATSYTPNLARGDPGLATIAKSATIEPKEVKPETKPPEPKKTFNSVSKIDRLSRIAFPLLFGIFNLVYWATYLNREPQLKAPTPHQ
T1 sequence (P18507 40-475): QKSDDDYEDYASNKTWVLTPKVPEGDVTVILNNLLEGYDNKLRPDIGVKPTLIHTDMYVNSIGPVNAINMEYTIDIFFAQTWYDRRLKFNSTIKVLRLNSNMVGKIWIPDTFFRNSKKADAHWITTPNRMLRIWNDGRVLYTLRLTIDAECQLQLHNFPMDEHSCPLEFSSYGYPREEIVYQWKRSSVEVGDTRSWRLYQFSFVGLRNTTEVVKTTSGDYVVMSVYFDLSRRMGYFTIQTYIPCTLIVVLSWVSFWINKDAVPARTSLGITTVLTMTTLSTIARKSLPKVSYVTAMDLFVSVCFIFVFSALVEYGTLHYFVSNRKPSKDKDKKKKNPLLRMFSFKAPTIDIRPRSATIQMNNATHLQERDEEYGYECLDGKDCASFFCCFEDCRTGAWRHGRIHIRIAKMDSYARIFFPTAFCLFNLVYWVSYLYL
T1 sequence (P47870 25-512 partner limits assumed): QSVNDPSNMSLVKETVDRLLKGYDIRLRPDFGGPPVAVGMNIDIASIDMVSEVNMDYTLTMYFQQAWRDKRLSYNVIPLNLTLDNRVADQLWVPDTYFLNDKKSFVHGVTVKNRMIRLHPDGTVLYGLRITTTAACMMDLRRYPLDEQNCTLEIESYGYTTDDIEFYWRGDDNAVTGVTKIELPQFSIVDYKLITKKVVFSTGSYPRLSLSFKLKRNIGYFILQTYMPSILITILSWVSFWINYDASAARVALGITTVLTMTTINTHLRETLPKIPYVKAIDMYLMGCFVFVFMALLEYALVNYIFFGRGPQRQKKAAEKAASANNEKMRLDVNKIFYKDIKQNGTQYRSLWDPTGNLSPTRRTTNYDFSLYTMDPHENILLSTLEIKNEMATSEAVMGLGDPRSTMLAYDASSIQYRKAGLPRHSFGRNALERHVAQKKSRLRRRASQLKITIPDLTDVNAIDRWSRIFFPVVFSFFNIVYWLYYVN

[10] = not given; remark: listed apart in the source
[11] = tested on: calcium-dependent release of dopamine from rabbit retina; settings: picomolar concentrations
[12] = tested on: calcium-dependent release of dopamine from chicken retina; settings: picomolar concentrations
MT-3 melatonin sites = settings: hamster brain
[13] = tested on: other melatonin receptors
[14] = in vivo
rats [15] = tested on: rats; remark: listed apart in the source
[16] = not given; remark: listed apart in the source
[17] = 10 mg or 64 mg dosages, compared to placebo

ML2 receptors, sequence (P16083 whole entry): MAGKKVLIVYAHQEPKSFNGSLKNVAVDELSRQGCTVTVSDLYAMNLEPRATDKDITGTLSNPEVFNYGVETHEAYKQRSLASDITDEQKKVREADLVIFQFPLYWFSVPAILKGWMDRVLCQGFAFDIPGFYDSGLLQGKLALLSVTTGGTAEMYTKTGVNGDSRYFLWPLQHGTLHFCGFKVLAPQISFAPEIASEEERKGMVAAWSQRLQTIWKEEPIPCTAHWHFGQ

Molecule: CCC(=O)NCC[C@@H]1CCc2ccc3c(c21)CCO3 [TAK-375]
- affinity for ML1 receptors (ML1 receptors): very high affinity
- selectivity with respect to ML2 receptors (ML2 receptors): excellent selectivity
- binding affinity for benzodiazepine receptors (benzodiazepine receptors): virtually no binding affinity
- binding affinity for dopamine receptors (dopamine receptors): virtually no binding affinity
- binding affinity for opiate receptors (opiate receptors): virtually no binding affinity
- duration of sleep-promoting effects (rats [1]; compared with melatonin): last longer than those of melatonin
- learning or memory (rats [1]; rat, in vivo): did not impair
- potential for drug dependence (rats [1]; rats): did not demonstrate the potential for drug dependence
- falling asleep (human subjects; [17]): fall asleep more quickly
- remaining asleep (human subjects; [17]): remain asleep for a longer period of time
- side effects (human subjects; human subjects): limited to only a few cases of headache, somnolence, fatigue, nausea, and dissiness

Molecule: CCCC(C)(COC(N)=O)COC(N)=O [meprobamate]
- ED100 (mice): 300 mg/kg

Molecule: zopiclone
- absorption [2]: well absorbed

Molecule: O=C(CCCN1CCC(O)(c2ccc(Cl)cc2)CC1)c1ccc(F)cc1 [haloperidol]
- ED100 (mice): 10 mg/kg

Molecule: CC(=O)NCCN1CCc2ccc3c(c21)CCO3 [GR196429, N-[2-[2,3,7,8-tetrahydro-1H-furo(2,3-g)indol-1-yl]ethyl]acetamide]
- pKi (human MT1 receptors): 9.9

Molecule: CCC1(c2ccccc2)CCC(=O)NC1=O (centres unmarked) [glutethimide]
- ED100 (mice): 300 mg/kg

Molecule: CC(=O)NCCc1c(Cc2ccccc2)[nH]c2ccccc12 [Luzindole, 2-benzyl-N-acetyltryptamine]
- calcium-dependent release of [3H]dopamine ([3]; concentrations up to 10 μM): does not modify
- spontaneous outflow of [3H]dopamine ([3]; concentrations up to 10 μM): does not modify
- ability of melatonin to inhibit [3H]dopamine release ([3]; in a competitive fashion): antagonize

Molecule: CCC(=O)NCC1Cc2cccc(OC)c2C1 (centres unmarked) [GG-012, 4-methoxy-2-(methylenepropylamide)indan]
- levels of melatonin (levels of melatonin): two-fold increase

Molecule: COc1cc2c([C@@H](C)CNC(C)=O)c[nH]c2cc1Cl [LY 156735]
- readaptation speed of physiological rhythms (physiological rhythms): enhanced the readaptation speed

Molecule: Oc1noc2c1CCNC2 [gaboxadol, 4,5,6,7-tetrahydroisoxazolo[5,4-c]pyridin-3-ol]
- effect of bicuculline methochloride (BMC) on the inhibitory action on central neurones [4]: reversibly antagonized
- interaction with the GABA uptake system (GABA uptake system): did not interact
- interaction with GABA:2-oxo-glutarate aminotransferase [5]: did not interact
- interaction with L-glutamate 1-carboxylase [6]: did not interact
- intensity of non-REM sleep [7]: increase
- sleep consolidation [7]: increase
- deep sleep (sleep): promoting
- falling asleep (sleep): facilitates falling asleep
- total sleep time (sleep): increasing

Molecule: CCCC(C)C1(CC)C(=O)NC(=O)NC1=O (centres unmarked) [pentobarbital]
- ED100 (mice): 100 mg/kg

Molecule: CN1C(=O)CN=C(c2ccccc2)c2cc(Cl)ccc21 [diazepam, 7-chloro-1,3-dihydro-1-methyl-5-phenyl-2H-1,4-benzodiazepin-2-one]
- ED100 (mice): 50 mg/kg

Molecule: COc1ccc2cccc(CCNC(C)=O)c2c1 [agomelatine]
- optimal dosage [8]: 25 mg

Molecule: COC(=O)[C@H]1[C@H]2C[C@@H]3c4[nH]c5cc(OC)ccc5c4CCN3C[C@H]2C[C@@H](OC(=O)c2cc(OC)c(OC)c(OC)c2)[C@@H]1OC [reserpine]
- ED100 (mice): 50 mg/kg

Molecule: CCN(C(C)=O)c1cccc(-c2ccnc3c(C#N)cnn23)c1 [Zaleplon, N-[3-(3-cyanopyrazolo[1,5-a]pyrimidin-7-yl)phenyl]-N-ethylacetamide]
- binding to brain omega-1 receptor [9]: binds selectively
- time of peak plasma concentrations (following oral administration): 1 h
- bioavailability (oral, substantial presystemic metabolism): 30%

Molecule: COc1cccc2c1CC(NC(C)=O)CC2 (centres unmarked) [AH-001, 2-acetamido-8-methoxytetralin]
- levels of melatonin (levels of melatonin): increase

Molecule: Cc1ccc(-c2nc3ccc(C)cn3c2CC(=O)N(C)C)cc1 [zolpidem, N,N,6-trimethyl-2-(4-methylphenyl)-imidazo[1,2-s]pyridine-3-acetamide]
- kinetics in the therapeutical dose range ([10]; between 5 and 10 mg in conventional forms): linear kinetics
- bioavailability ([10]; following oral administration): 70%
- duration of action ([10]; in vivo): up to 6 hours
- time at which peak plasma concentration is reached ([10]; in vivo): 0.5 to 3 h
- elimination half-life ([10]; mean): 2.4 h

Molecule: COc1ccc2[nH]cc(CCNC(C)=O)c2c1 [melatonin, N-[2-(5-Methoxy-1H-indol-3-yl)ethyl]acetamide]
- calcium-dependent release of dopamine [11]: selectively inhibit
- calcium-dependent release of dopamine [12]: selectively inhibit

Molecule: COC(=O)Nc1ccc2[nH]cc(CCNC(C)=O)c2c1 [5-MCA-NAT, 5-methoxy-carbonylamino-N-acetyltryptamine]
- affinity for MT-3 melatonin sites (MT-3 melatonin sites): high affinity
- affinity or efficacy for other melatonin receptors [13]: low affinity or efficacy

Molecule: CC(=O)N(C)c1cccc(-c2ccnc3c(C(=O)c4cccs4)cnn23)c1 [Indiplon, N-methyl-N-(3-{3-[2-thienylcarbonyl]-pyrazolo-[1,5-a]-pyrimidin-7-yl}-phenyl)acetamide]
- half-life [14]: approximately 1.3 hours

Molecule: COc1ccc2[nH]cc(CCNc3ccc([N+](=O)[O-])cc3[N+](=O)[O-])c2c1 [ML-23, N-2,4-dinitrophenyl-5-methoxy-tryptamine]
- development of severe motor impairment (rats [15]): prevented

Molecule: CP(=O)(O)CCCN [SKF 97541, 3-aminopropyl(methyl)phosphinic acid]
- solubility in water and dilute aqueous base [16]: readily soluble
